Holding throughout (type): functional
One test relates to KB. The test can be described thus: Cytotoxicity against human KB cells. The note with it: read-out: ID50 (the source's name).
For test [1], the system named is P388. As to the kind of experiment: Cytotoxicity against mouse P388 cells. The note with it: read-out: ID50 (the source's name).
In test [2] the test system is P388. The test can be described thus: In vivo antitumor activity against mouse P388 cells at 5 mg/kg, ip administered on 1,5 and 9 days relative to control. The note with it: route intraperitoneal.
Test [3] has as its system P388. As to the kind of experiment: In vivo antitumor activity against mouse P388 cells at 10 mg/kg, ip administered on 1,5 and 9 days relative to control. To be noted: route intraperitoneal.
The nature of test [4]: Cytotoxicity against human NSCLC-N6 cells. To be noted: read-out: ID50 (the source's name).

Converted amounts (≈) assume the structure as drawn.

With `CC(=O)Oc1ccc(OC(C)=O)c(OC(C)=O)c1C/C=C(\C)CC/C=C(\C)CC/C=C(\C)CCC=C(C)C`, in the test on KB, the IC50 came out at 1.8 µg/mL (≈ 3.43 µM).

`CC(=O)Oc1ccc(O)c(O)c1C/C=C(\C)CC/C=C(\C)CC/C=C(\C)CCC=C(C)C` [TETRAPRENYLPHENOLSUILLIN]: the IC50 with KB turned out to be 0.69 µg/mL (≈ 1.57 µM); with P388 [1] it was 0.85 µg/mL (≈ 1.93 µM); in test [4], 1.02 µg/mL (≈ 2.31 µM). Besides, the T/C in the test with P388 [2] came to 151%; in the test with P388 [3], 160%.

A word on the T/C: it is the result in the treated group divided by that in the control group, in per cent.

The record behind these values is ChEMBL document CHEMBL1147298, “An antitumor principle from Suillus granulatus” (1989).
